Measurements reported in patent US9162977B2, “Synthetic ion channels” (The University of Hong Kong, priority 2006, dated 2015).
Entries after “also recorded” stand apart in the source; their conditions may differ. Values belong to the compound of their own block, whether it stands above or below them.

Legend:
[1] = pH-stat fluorometric transport assay (HPTS-loaded liposomes); assay type: biochemical
Text: This Example illustrates that the compound of Example 2 mediates chloride release when incorporated into liposomes. The liposome-based pH-stat fluorometric assay is an assay routinely used for identification of physiologically relevant ionophores, which are disclosed in (a) Deng, G., Dewa, T. and Regen, S. L. J. Am. Chem. Soc. 1996, 118, 8975; (b) Schlesinger, P. H., Ferdani, R., Liu, J., Pajewska, J., Pajewski, R., Saito, M., Shabany, H. and Gokel, G. W. J. Am. Chem. Soc. 2002, 124, 1848; (c) Sidorov, V., Kotch, F. W., Abdrakhmanova, G., Mizani, R., Fettinger, J. C. and Davis, J. T. J. Am. Chem. Soc. 2002, 124, 2267; (d) Sidorov, V., Kotch, F. W., Kuebler, J. L., Lam, Y.-F. and Davis, J. T. J. Am. Chem. Soc. 2003, 125, 2840; and (e) Baumeister, B., Sakai, N. and Matile, S. Angew. Chem., Int. Ed. 2000, 39, 1955, all of which are incorporated herein by reference. For example, in this assay, a controlled amount of the base and potential ionophore is added to a suspension of liposomes containing a pH-sensitive dye, 8-hydroxypyrene-1,3,6-trisulfonate (HPTS, pyranine). The resulting pH gradient across the bilayer membrane causes the efflux of hydronium ions or the influx of hydroxide ions and builds up an electrostatic potential. This potential can be compensated by the efflux of anions or influx of cations (H^+/M^+ or OH^−/A^− antiport and H^+/A^− or M^+/OH^− symport mechanisms are possible). If the compound of interest mediates such ion transport, the efflux of hydronium ions or the influx of hydroxide ions continues altering the […] pH and the fluorescence of the reporter dye.
Example 2-mediated chloride release was determined in large unilamellar vesicles (LUVs) of 100 nm average dimension, as reported in Sidorov, V., Kotch, F. W., Abdrakhmanova, G., Mizani, R., Fettinger, J. C. and Davis, J. T. J. Am. Chem. Soc. 2002, 124, 2267. […] Importantly, Example 2 mediated electrolyte exchange with high anion selectivity. It mediated electrolyte exchange in the presence of chloride but not in the presence of sulfate (see FIG. 6).

[2] = test system: human embryonic kidney (HEK 293) cells; assay: Whole-cell patch-clamp recording of chloride currents; assay type: cell-based
Method: The whole-cell configuration of the patch-clamp technique was used to examine the electrophysiological properties of the ionic currents induced by Example 2 in human embryonic kidney (HEK 293) cells. HEK 293 cell line originally obtained from the American Type Culture Collection, were cultured in DMEM supplemented with 10% FBS and 100 IU/ml penicillin G and 0.1 mg/ml streptomycin. Cells were grown at 37° C. in a 5% CO2 humidified incubator. Whole-cell chloride currents were recorded by using an EPC 9 patch clamp amplifier (HEKA Elektronik, Lambrecht/Pfalz, Germany) in voltage-clamp mode, controlled by Pulse/PulseFit 8.7 software (HEKA). Patch pipettes (resistance, 3-5 MΩ) were filled with a solution internal pipette solution containing CsCl 140, MgCl2 1, HEPES 10, EGTA 5, Na2ATP 5 (in mmol/L, pH 7.2 with CsOH). The bath solution contained NaCl 140, CsCl 5, CaCl2 1, MgCl2 1, HEPES 10 (in mmol/L, pH 7.4 with CsOH). After gigaohm seals were obtained, the membrane was ruptured with a pulsed negative pressure. Pipette and membrane capacitance were automatically compensated. Series resistance was typically compensated by 70%. […] All macroscopic currents were sampled at 50 kHz and filtered at 5 kHz, and data were analyzed with PulseFit (HEKA). Changes of Cl current were detected from the same cells before and after exposure to the bath solution containing Example 2 at the concentration of 50 nM. […]

[3] = Single-channel recording by patch-clamp on giant liposomes; assay type: biochemical
Text: Single-channel recording, using patch clamp techniques, is the most critical test for identifying ion channel formation, which is distinguished from other ion transport mechanisms such as ion carriers, and quantifying ion transport efficiency of a membrane channel. The channel-forming activity of Example 2 incorporated in lipid bilayers is examined using patch-clamp technique on giant liposomes.
The two key properties of ion channels in nature are ion selectivity, that is, a channel permits only certain ionic species to flow through its pore, and gating referring to the mechanism of channel opening and closing.

Structure (SMILES): CC(C)CNC(=O)[C@@H](CC(C)C)ONC(=O)c1cccc(C(=O)NO[C@H](CC(C)C)C(=O)NCC(C)C)n1 [Example 7]
melting point: 175 to 177 °C

Structure (SMILES): CC(C)CNC(=O)[C@@H](CC(C)C)ONC(=O)c1cccc(C(=O)NO[C@H](CC(C)C)C(=O)NCC(C)C)c1 [Example 2]
exchange between extra- and intravesicular electrolytes (chloride release) ([1]; LUVs of 100 nm, NaCl extra- and intravesicular buffers, FIG. 5): rapid, concentration-dependent exchange | transport activity in LUVs loaded with sulfate ([1]; LUVs symmetrically loaded with Na2SO4, FIG. 6): no transport activity was detected | chloride transport across lipid bilayers of chloride-containing liposomes ([1]; LUVs, NaCl extra- and intravesicular buffers, FIG. 7 and FIG. 12): mediates chloride transport across the bilayer | melting point: 176 to 178 °C | whole cell (chloride) currents ([2]; 50 nM in bath solution, room temperature, FIG. 9): dramatically increases cell chloride currents; also recorded: large increase | induced whole cell currents in the presence of an anion transport inhibitor ([2]; in the presence of DIDS): not reduced | change in conductance or reversal potential ([3]; NMDG-Cl in the bath solution replaced by KCl): no measurable change | ion selectivity of the channels formed ([3]; giant liposomes, patch clamp): chloride selectivity; also recorded: anion selective | gating of the channels formed ([3]; giant liposomes, patch clamp, FIG. 8): voltage dependent gating; also recorded: voltage-gated | primary single-channel conductance ([3]; symmetric 0.2 M N-methyl-glucamine hydrochloride (NMDG-Cl) solutions, compound in bath solution, FIG. 8): 54 pS | channel open probability (Po) and frequency ([3]; upon increasing voltages of lipid bilayers within a physiologically relevant range, FIG. 8): enhanced steeply

Structure (SMILES): CCCCCCCCCCCCCCCCCCNC(=O)[C@@H](CC(C)C)ONC(=O)c1cccc(C(=O)NO[C@H](CC(C)C)C(=O)NCCCCCCCCCCCCCCCCCC)c1 [Example 5]
melting point: 88 to 90 °C

Structure (SMILES): CC(C)CNC(=O)[C@H](CC(C)C)NC(=O)c1cccc(C(=O)N[C@@H](CC(C)C)C(=O)NCC(C)C)c1 [Example 8]
melting point: 240 to 242 °C

Structure (SMILES): CC(C)CNC(=O)[C@H](CC(C)C)OC(=O)c1cccc(C(=O)O[C@@H](CC(C)C)C(=O)NCC(C)C)c1 [Example 9]
melting point: 137 to 139 °C

Other lines, results leading:

melting point: 130 to 132 °C
Structure (SMILES): CC(C)CNC(=O)[C@@H](CC(C)C)ONC(=O)c1ccccc1 [Example 6]

melting point: 57 to 59 °C
Structure (SMILES): CC(C)C[C@@H](ONC(=O)c1cccc(C(=O)NO[C@H](CC(C)C)C(=O)OC(C)(C)C)c1)C(=O)OC(C)(C)C [Example 1]
